# Measurements published in patent publication US20230339889A1, “DERIVATIVES OF 2-OXO-N-(4-(PYRIMIDIN-4-YLOXY/THIO)PHENYL)-1,2-DIHYDROPYRIDINE-3-CARBOXAMIDE FOR USE AS PROTEIN KINASE INHIBITORS FOR THERAPY” (AUCENTRA THERAPEUTICS PTY LTD, priority 2020, published 2023).
# Columns and labels:
# Assay in all cases: Filter-binding radiometric kinase activity assay (KinaseProfiler, Eurofins)
# Assay type in all cases: biochemical
# [1] = target: T1, Mer (Homo sapiens, UniProt Q12866); settings: 1 µM compound; read-out: % Residual enzymatic activity at 1 µM Mer
# T1 construct: purchased Eurofins Discovery (Kinase Profiler service)
# T1 sequence (Q12866 21-999): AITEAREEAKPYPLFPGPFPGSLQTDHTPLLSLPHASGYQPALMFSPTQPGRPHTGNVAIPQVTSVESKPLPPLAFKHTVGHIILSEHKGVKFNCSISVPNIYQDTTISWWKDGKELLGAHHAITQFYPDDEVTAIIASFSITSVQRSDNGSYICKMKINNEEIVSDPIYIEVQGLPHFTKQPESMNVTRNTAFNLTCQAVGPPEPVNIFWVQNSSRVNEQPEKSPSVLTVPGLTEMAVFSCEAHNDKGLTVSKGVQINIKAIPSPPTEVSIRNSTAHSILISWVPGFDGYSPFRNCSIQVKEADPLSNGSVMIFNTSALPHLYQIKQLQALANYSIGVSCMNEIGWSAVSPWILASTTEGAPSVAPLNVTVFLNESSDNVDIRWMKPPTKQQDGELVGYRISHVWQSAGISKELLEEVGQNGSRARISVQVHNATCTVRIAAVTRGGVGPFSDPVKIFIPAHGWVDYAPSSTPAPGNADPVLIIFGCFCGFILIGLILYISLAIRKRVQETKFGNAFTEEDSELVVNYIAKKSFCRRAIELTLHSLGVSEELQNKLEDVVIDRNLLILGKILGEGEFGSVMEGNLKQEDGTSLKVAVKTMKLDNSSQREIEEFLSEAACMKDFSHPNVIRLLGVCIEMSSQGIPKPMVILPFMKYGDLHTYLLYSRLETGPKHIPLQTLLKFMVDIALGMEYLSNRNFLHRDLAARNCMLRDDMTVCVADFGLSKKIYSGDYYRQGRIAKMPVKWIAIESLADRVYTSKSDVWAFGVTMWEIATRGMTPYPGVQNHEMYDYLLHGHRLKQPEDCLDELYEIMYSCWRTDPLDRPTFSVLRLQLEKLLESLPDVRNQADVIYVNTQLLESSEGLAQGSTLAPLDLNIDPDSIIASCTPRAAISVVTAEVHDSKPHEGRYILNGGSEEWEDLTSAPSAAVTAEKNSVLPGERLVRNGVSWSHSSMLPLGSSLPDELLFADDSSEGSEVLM
# [2] = target: T2, AXL (Homo sapiens, UniProt P30530); settings: 1 µM compound; read-out: % Residual enzymatic activity at 1 µM AXL
# T2 construct: purchased Eurofins Discovery (Kinase Profiler service)
# T2 sequence (P30530 26-894): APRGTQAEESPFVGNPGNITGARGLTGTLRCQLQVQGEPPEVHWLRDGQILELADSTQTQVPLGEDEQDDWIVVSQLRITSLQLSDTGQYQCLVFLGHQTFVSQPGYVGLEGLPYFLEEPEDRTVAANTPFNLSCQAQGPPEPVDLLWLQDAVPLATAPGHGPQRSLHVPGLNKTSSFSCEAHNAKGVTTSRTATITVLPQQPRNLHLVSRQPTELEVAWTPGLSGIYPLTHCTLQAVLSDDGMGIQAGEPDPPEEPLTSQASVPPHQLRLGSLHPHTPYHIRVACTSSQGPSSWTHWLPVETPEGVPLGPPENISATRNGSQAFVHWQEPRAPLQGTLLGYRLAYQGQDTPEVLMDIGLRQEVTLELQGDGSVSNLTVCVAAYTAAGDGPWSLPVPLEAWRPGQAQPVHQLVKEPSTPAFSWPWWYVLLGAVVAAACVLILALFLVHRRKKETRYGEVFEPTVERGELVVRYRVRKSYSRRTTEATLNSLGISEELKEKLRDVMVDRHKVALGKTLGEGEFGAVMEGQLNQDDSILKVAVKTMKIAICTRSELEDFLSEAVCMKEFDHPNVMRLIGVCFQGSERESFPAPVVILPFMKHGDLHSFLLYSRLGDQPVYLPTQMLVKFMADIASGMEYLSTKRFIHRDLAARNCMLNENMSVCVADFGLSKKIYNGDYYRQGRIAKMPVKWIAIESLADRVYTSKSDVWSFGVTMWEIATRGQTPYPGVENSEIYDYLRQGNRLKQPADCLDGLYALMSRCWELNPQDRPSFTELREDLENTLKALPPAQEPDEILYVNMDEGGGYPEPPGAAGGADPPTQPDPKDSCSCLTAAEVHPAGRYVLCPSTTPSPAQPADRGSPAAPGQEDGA
# [3] = target: T3, MET (Homo sapiens, UniProt P08581); settings: 1 µM compound; read-out: % Residual enzymatic activity at 1 µM MET
# T3 construct: purchased Eurofins Discovery (Kinase Profiler service)
# T3 sequence (P08581 25-1390): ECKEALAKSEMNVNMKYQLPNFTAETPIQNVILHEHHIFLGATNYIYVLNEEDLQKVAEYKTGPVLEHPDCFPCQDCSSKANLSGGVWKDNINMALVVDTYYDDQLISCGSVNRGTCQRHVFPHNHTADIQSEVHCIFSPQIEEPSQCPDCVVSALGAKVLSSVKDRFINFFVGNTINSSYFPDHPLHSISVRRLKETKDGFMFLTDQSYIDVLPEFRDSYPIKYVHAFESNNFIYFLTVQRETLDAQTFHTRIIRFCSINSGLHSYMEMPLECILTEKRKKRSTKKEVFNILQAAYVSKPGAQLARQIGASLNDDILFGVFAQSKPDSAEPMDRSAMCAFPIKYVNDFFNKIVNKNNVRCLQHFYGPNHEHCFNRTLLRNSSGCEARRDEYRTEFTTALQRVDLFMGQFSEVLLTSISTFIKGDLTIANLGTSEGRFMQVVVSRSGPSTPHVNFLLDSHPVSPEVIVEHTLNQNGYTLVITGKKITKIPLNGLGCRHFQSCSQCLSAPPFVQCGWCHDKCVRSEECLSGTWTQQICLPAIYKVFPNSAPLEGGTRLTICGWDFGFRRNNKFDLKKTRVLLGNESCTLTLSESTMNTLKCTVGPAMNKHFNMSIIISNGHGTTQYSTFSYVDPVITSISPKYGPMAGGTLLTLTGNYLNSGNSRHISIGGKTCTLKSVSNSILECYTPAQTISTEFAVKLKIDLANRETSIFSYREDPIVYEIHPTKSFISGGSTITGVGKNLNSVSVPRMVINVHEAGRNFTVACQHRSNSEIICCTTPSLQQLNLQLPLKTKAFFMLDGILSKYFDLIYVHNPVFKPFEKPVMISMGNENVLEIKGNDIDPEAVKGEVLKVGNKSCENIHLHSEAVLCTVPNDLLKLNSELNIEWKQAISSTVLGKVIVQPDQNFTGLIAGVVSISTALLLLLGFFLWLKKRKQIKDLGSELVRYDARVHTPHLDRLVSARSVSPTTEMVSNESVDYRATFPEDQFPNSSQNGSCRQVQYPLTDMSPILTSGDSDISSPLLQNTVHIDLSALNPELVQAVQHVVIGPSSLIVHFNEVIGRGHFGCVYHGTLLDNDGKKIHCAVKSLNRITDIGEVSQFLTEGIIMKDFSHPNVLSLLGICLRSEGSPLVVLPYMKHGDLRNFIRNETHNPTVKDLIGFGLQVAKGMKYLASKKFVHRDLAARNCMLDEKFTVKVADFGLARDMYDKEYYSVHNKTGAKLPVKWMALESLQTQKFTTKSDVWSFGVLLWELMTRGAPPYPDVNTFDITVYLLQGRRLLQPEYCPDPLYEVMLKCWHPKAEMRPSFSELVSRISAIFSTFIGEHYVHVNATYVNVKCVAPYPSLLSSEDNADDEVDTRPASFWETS
Compound,remaining activity at 1 µM [1],remaining activity at 1 µM [2],remaining activity at 1 µM [3]
"Nc1ncnc(Oc2ccc(NC(=O)c3cccn(-c4ccc(F)cc4)c3=O)cc2F)c1Cl [Cmpd 3, N-(4-((6-amino-5-chloropyrimidin-4-yl)oxy)-3-fluorophenyl)-1-(4-fluorophenyl)-2-oxo-1,2-dihydropyridine-3-carboxamide]",6%,4%,-7%
"Nc1ncnc(Oc2ccc(NC(=O)c3cccn(-c4ccc(F)cc4)c3=O)c(F)c2)c1Cl [Cmpd 5, N-(4-((6-amino-5-chloropyrimidin-4-yl)oxy)-2-fluorophenyl)-1-(4-fluorophenyl)-2-oxo-1,2-dihydropyridine-3-carboxamide]",0%,-8%,-5%
"Nc1ncnc(Oc2ccc(NC(=O)c3cccn(-c4ccc(F)cc4)c3=O)cc2F)c1F [Cmpd 1, N-(4-((6-amino-5-fluoropyrimidin-4-yl)oxy)-3-fluorophenyl)-1-(4-fluorophenyl)-2-oxo-1,2-dihydropyridine-3-carboxamide]",12%,13%,0%
"Nc1ncnc(Oc2ccc(NC(=O)c3cccn(-c4ccc(F)cc4)c3=O)c(F)c2)c1F [Cmpd 7, N-(4-((6-amino-5-fluoropyrimidin-4-yl)oxy)-2-fluorophenyl)-1-(4-fluorophenyl)-2-oxo-1,2-dihydropyridine-3-carboxamide]",4%,8%,-6%
"Nc1ncnc(Oc2ccc(NC(=O)c3cccn(-c4ccc(F)cc4)c3=O)cc2)c1F [Cmpd 6, N-(4-((6-amino-5-fluoropyrimidin-4-yl)oxy)phenyl)-1-(4-fluorophenyl)-2-oxo-1,2-dihydropyridine-3-carboxamide]",14%,14%,8%
"Nc1ncnc(Oc2ccc(NC(=O)c3cccn(-c4ccc(F)cc4)c3=O)cc2)c1Cl [Cmpd 4, N-(4-((6-amino-5-chloropyrimidin-4-yl)oxy)phenyl)-1-(4-fluorophenyl)-2-oxo-1,2-dihydropyridine-3-carboxamide]",19%,-1%,-5%
